Results taken from doi:10.1101/2021.04.08.439011v1 (biorxiv, 2021).
Read-outs that look alike come from different tables or passages of the source.

Tests used:
PIK3CA(H1047Y) = PIK3CA(H1047Y) (Homo sapiens, UniProt P42336, H1047Y); conditions: 0.1 µM; binder
MLK3 = MLK3 (Homo sapiens, UniProt Q16584); conditions: 0.1 µM; binder
MTOR = MTOR (Homo sapiens, UniProt P42345); conditions: 0.1 µM; binder
MEK6 = MEK6 (Homo sapiens, UniProt P52564); conditions: 0.1 µM; binder
PCTK3 = PCTK3 (Homo sapiens, UniProt Q07002); conditions: 0.1 µM; binder
PDGFRA = PDGFRA (Homo sapiens, UniProt P16234); conditions: 0.1 µM; binder
STK16 = STK16 (Homo sapiens, UniProt O75716); conditions: 0.1 µM; binder
EPHB6 = EPHB6 (Homo sapiens, UniProt O15197); conditions: 0.1 µM; binder
BLK = BLK (Homo sapiens, UniProt P51451); conditions: 0.1 µM; binder
RET(M918T) = RET(M918T) (Homo sapiens, UniProt P07949, M918T); conditions: 0.1 µM; binder
RIPK4 = RIPK4 (Homo sapiens, UniProt P57078); conditions: 0.1 µM; binder
ACVR2A = ACVR2A (Homo sapiens, UniProt P27037); conditions: 0.1 µM; binder
PIK3CA(H1047L) = PIK3CA(H1047L) (Homo sapiens, UniProt P42336, H1047L); conditions: 0.1 µM; binder
NDR2 = NDR2 (Homo sapiens, UniProt Q9Y2H1); conditions: 0.1 µM; binder
BRAF(V600E) = BRAF(V600E) (Homo sapiens, UniProt P15056, V600E); conditions: 0.1 µM; binder
TRKA = TRKA (Homo sapiens, UniProt P04629); conditions: 0.1 µM; binder
RAF1 = RAF1 (Homo sapiens, UniProt P04049); conditions: 0.1 µM; binder
LCK = LCK (Homo sapiens, UniProt P06239); conditions: 0.1 µM; binder
AAK1 = AAK1 (Homo sapiens, UniProt Q2M2I8); conditions: 0.1 µM; binder
PRKD2 = PRKD2 (Homo sapiens, UniProt Q9BZL6); conditions: 0.1 µM; binder
EPHB2 = EPHB2 (Homo sapiens, UniProt P29323); conditions: 0.1 µM; binder
HPK1 = HPK1 (Homo sapiens, UniProt Q92918); conditions: 0.1 µM; binder
EGFR(L858R,T790M) = EGFR(L858R,T790M) (Homo sapiens, UniProt P00533, L858R/T790M); conditions: 0.1 µM; binder
PDPK1 = PDPK1 (Homo sapiens, UniProt O15530); conditions: 0.1 µM; binder
EGFR(G719S) = EGFR(G719S) (Homo sapiens, UniProt P00533, G719S); conditions: 0.1 µM; binder
TAOK3 = TAOK3 (Homo sapiens, UniProt Q9H2K8); conditions: 0.1 µM; binder
SIK2 = SIK2 (Homo sapiens, UniProt Q9H0K1); conditions: 0.1 µM; binder
NEK7 = NEK7 (Homo sapiens, UniProt Q8TDX7); conditions: 0.1 µM; binder
KIT = KIT (Homo sapiens, UniProt P10721); conditions: 0.1 µM, binder
FES = FES (Homo sapiens, UniProt P07332); conditions: 0.1 µM; binder
MYO3A = MYO3A (Homo sapiens, UniProt Q8NEV4); conditions: 0.1 µM; binder

Chain of KIT (P10721 whole entry): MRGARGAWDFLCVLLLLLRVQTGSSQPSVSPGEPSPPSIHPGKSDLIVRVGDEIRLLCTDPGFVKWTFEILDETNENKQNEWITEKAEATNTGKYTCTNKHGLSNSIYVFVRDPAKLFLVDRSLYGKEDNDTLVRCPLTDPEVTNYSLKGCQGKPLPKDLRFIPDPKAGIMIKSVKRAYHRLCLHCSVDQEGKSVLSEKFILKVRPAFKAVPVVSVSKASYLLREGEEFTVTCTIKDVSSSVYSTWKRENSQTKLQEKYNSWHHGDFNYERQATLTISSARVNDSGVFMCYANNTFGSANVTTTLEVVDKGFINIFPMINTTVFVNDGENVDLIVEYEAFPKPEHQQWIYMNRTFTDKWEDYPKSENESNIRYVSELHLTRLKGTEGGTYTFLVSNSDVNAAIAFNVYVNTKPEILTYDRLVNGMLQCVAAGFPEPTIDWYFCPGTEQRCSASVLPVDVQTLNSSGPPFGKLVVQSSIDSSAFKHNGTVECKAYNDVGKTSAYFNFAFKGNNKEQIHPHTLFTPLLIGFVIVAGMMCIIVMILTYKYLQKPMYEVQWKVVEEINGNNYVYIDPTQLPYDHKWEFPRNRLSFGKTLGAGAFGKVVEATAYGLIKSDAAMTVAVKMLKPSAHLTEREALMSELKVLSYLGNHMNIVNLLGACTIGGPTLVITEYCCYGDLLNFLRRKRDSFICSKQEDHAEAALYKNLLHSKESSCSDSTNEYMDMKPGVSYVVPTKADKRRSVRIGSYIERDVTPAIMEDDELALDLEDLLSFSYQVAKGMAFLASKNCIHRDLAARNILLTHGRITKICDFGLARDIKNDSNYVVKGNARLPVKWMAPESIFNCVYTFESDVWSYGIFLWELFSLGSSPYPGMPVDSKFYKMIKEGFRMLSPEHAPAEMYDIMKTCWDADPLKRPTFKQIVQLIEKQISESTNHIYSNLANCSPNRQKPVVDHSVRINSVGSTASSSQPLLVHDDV
Chain of STK16 (O75716 whole entry): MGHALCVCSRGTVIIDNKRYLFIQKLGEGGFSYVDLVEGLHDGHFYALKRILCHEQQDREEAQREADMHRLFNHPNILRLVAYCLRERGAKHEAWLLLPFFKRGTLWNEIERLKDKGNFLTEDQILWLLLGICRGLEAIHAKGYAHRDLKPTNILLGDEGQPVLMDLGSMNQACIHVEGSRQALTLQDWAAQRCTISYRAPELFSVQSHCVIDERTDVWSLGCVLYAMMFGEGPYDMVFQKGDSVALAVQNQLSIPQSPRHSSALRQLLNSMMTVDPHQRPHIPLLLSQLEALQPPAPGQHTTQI
Chain of NEK7 (Q8TDX7 whole entry): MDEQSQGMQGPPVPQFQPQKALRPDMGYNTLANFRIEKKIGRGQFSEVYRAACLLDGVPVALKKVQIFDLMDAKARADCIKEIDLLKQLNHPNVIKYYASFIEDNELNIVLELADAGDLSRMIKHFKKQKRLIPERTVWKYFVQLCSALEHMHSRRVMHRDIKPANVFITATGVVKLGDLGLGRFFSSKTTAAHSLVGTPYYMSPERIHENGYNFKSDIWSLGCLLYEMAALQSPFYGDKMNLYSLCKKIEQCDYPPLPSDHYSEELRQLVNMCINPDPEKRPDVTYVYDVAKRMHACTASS
Chain of MLK3 (Q16584 whole entry): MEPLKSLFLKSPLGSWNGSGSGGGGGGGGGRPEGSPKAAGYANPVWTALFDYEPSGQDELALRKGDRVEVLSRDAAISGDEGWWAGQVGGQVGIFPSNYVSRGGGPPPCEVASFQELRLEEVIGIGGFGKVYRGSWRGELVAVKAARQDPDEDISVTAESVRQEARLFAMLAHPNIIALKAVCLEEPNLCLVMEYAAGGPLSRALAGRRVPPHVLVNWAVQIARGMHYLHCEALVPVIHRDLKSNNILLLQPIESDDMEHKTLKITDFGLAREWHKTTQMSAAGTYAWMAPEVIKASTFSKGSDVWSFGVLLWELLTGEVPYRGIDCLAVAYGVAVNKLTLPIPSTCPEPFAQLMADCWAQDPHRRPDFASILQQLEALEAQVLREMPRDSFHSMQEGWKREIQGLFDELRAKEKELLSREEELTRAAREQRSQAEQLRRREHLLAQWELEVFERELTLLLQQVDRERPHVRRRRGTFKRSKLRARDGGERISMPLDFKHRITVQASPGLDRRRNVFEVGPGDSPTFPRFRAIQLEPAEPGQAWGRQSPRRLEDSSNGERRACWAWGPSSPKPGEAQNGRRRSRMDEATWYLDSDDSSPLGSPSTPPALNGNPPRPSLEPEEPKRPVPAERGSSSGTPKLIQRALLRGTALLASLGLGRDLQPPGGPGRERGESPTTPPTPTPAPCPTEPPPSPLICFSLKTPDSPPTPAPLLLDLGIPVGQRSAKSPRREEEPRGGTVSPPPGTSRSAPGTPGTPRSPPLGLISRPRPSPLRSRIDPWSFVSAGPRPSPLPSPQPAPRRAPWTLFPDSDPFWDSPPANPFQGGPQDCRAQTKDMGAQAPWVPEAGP
Chain of AAK1 (Q2M2I8 whole entry): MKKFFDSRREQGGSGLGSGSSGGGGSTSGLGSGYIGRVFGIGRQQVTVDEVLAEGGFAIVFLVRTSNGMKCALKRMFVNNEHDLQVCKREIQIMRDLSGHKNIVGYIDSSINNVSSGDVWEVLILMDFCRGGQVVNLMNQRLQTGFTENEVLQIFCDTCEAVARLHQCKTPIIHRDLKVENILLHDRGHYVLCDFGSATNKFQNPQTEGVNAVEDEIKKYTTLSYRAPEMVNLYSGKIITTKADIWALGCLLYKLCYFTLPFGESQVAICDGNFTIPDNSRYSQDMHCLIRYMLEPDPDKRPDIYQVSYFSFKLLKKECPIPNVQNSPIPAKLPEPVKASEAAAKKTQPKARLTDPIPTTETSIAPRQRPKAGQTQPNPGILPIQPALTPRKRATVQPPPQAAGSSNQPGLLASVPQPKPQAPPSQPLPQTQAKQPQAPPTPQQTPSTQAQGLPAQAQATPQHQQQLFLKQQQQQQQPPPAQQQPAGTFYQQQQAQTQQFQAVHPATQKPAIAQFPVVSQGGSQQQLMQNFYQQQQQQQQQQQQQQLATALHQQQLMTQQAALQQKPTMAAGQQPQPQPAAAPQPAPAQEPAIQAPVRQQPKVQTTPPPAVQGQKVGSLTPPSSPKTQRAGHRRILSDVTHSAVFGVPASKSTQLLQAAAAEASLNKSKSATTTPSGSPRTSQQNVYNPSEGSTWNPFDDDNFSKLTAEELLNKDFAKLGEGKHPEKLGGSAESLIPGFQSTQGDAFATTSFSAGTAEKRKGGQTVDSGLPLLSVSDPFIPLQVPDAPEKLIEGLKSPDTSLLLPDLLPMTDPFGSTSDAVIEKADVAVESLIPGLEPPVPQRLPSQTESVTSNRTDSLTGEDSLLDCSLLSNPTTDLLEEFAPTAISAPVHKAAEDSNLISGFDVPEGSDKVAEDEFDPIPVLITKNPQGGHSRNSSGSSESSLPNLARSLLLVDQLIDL
Chain of EPHB2 (P29323 whole entry): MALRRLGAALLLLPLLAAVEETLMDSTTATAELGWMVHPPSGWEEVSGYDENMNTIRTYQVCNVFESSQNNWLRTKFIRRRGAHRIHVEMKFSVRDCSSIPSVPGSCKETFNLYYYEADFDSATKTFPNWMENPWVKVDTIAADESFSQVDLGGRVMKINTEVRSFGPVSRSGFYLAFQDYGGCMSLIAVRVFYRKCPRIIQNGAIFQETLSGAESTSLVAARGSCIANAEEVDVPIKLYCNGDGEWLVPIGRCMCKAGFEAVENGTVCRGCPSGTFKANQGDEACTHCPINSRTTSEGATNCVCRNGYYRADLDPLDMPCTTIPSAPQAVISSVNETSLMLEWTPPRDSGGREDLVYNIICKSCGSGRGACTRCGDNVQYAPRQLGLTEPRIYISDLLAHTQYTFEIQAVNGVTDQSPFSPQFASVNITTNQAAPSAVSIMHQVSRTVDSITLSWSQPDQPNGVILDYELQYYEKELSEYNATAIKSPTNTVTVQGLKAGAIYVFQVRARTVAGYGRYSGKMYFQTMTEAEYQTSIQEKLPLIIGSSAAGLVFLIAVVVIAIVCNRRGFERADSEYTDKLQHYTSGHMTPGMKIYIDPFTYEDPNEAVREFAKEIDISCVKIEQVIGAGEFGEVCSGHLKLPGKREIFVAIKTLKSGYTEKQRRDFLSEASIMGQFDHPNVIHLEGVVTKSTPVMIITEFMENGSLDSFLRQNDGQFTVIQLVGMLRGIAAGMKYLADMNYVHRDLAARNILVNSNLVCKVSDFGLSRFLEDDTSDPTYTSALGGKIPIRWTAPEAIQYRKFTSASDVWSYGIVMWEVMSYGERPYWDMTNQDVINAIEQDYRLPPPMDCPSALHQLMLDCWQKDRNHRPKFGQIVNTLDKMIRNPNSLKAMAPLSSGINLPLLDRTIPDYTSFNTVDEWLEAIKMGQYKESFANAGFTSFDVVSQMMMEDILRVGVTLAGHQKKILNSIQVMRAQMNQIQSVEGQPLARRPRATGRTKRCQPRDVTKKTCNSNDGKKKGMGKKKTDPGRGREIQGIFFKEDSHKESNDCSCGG
Chain of NDR2 (Q9Y2H1 whole entry): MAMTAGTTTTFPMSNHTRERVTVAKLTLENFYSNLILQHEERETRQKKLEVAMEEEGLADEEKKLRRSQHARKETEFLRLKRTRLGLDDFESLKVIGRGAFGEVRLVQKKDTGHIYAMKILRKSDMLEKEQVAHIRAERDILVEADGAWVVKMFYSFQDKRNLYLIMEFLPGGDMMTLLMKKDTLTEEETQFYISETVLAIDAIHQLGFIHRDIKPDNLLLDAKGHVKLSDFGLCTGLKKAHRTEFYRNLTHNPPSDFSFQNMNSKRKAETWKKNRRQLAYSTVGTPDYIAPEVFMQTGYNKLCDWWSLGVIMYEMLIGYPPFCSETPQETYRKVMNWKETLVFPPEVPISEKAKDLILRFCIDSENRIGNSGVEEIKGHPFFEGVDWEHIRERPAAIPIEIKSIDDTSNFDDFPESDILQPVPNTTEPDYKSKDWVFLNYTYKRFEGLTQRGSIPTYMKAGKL

## CNc1ncc2cc(-c3ccc(-c4cccc(C)n4)cc3Cl)c(=O)n(C[C@H]3OC[C@H](N)CO3)c2n1 [compound 6, G-5555]
PIK3CA(H1047Y)
  Percent Control: 73%
MLK3
  Percent Control: 100%
MTOR
  Percent Control: 83%
MEK6
  Percent Control: 80%
PCTK3
  Percent Control: 100%
PDGFRA
  Percent Control: 100%
STK16
  Percent Control: 100%
EPHB6
  Percent Control: 61%
BLK
  Percent Control: 100%
RET(M918T)
  Percent Control: 100%
RIPK4
  Percent Control: 97%
ACVR2A
  Percent Control: 100%
PIK3CA(H1047L)
  Percent Control: 100%
NDR2
  Percent Control: 100%
BRAF(V600E)
  Percent Control: 100%
TRKA
  Percent Control: 77%
RAF1
  Percent Control: 100%
LCK
  Percent Control: 58%
AAK1
  Percent Control: 100%
PRKD2
  Percent Control: 92%
EPHB2
  Percent Control: 100%
HPK1
  Percent Control: 78%
EGFR(L858R,T790M)
  Percent Control: 100%
PDPK1
  Percent Control: 99%
EGFR(G719S)
  Percent Control: 100%
TAOK3
  Percent Control: 100%
SIK2
  Percent Control: 6.5%
NEK7
  Percent Control: 100%
KIT
  Percent Control: 100%
KIT; autoinhibited
  Percent Control: 82%
FES
  Percent Control: 100%
MYO3A
  Percent Control: 100%
